Laboratory results: EP0624573A1, “Iodo vitamin D3 compounds and method for preparing same” (WISCONSIN ALUMNI RESEARCH FOUNDATION, priority 1993, dated 1994)

Key:
[1] = Intestinal calcium transport in vitamin D-deficient, low calcium diet rats; format: in vivo; details: for Intestinal Calcium Transport (Serosal/Mucosal Ratio): duodenum on day 7
Method: (§1) Rats were fed the vitamin D-deficient, low calcium (0.02%) diet for 3 weeks and then given the indicated dose in 0.1 ml propylene glycol:ethanol (95:5) intraperitoneally each day for 6 days. On day 7, serum was analyzed for calcium and the duodenum used to measure intestinal calcium transport as described by Martin et al. Am. J. Physiol.

[2] = test system: HL-60 cells; test: HL-60 differentiation assay, NBT (nitroblue tetrazolium reduction); format: cell-based, human; details: for percent of HL-60 cells having differentiated to monocytes: NBT assay, concentration of 1 x 10⁻⁷ molar (Fig. 1); for potency in promoting the differentiation of leukemia cells: in words, compared with 1α,25-dihydroxyvitamin D₃ (Fig. 1)
Method: This is illustrated by the biological assay results obtained for the claimed 22-iodo-vitamin D₃ compounds, which are summarized in Figs. 1 and 2, and Table 1. […] Differentiation activity was assessed by a standard differentiation assay, abbreviated in Fig. 1 as NBT (nitroblue tetrazolium reduction). The assay was conducted according to known procedures, as given, for example, by DeLuca et al U. S. Patent 4,717,721 and Ostrem et al, J. Biol. Chem. 262, 14164, 1987. For the assay, the differentiation activity of the test compounds is expressed in terms of the percent of HL-60 cells having differentiated to monocytes in response to a given concentration of test compound.

[3] = Bone calcium mobilization (serum calcium) in vitamin D-deficient, low calcium diet rats; format: in vivo; details: for Bone Calcium Mobilization (Serum Calcium): serum on day 7
Method: as §1

[4] = dose 0.1 µg/d/6 days intraperitoneally
[5] = dose 1.0 µg/d/6 days intraperitoneally

Row | Compound | Intestinal Calcium Transport (Serosal/Mucosal Ratio) [1, 4] | percent of HL-60 cells having differentiated to monocytes [2] | Bone Calcium Mobilization (Serum Calcium) [3, 4] | biological activity in intestinal calcium transport relative to that of 1,25-(OH)₂D₃ ([1]; Table 1 (1.0 µg/d versus 0.1 µg/d of 1,25-(OH)₂D₃)) | Intestinal Calcium Transport (Serosal/Mucosal Ratio) [1, 5] | potency in promoting the differentiation of leukemia cells [2] | Bone Calcium Mobilization (Serum Calcium) [3, 5] | bone calcium mobilizing activity ([3]; in words, 1µg per day for six days)
1 | C=C1/C(=C\C=C2/CCC[C@]3(C)[C@@H]([C@H](C)CCCC(C)(C)O)CC[C@@H]23)C[C@@H](O)C[C@@H]1O [1,25-(OH)₂D₃, 1α,25-dihydroxyvitamin D₃, reference compound] | 11.2 ± 1.2 | ~90% | 5.9 ± 0.3 mg/100 ml | – | – | – | – | –
2 | C=C1/C(=C\C=C2/CCC[C@]3(C)[C@@H]([C@H](C)[C@@H](I)CCC(C)(C)O)CC[C@@H]23)C[C@@H](O)C[C@@H]1O [compound 9, (22S)-iodo-1α,25-dihydroxyvitamin D₃] | – | the same degree of differentiation | – | about double | 22.8 ± 1.4 | as potent as 1α,25-dihydroxyvitamin D₃ | 4.9 ± 0.1 mg/100 ml | little or no bone calcium mobilizing activity
3 | C=C1/C(=C\C=C2/CCC[C@]3(C)[C@@H]([C@H](C)[C@H](I)CCC(C)(C)O)CC[C@@H]23)C[C@@H](O)C[C@@H]1O [compound 11, (22R)-iodo-1α,25-dihydroxyvitamin D₃] | – | the same degree of differentiation | – | – | – | as potent as 1α,25-dihydroxyvitamin D₃ | – | –
